# Test system: not given
# Assay: not given
# Conditions: not given
row,melting point [°C],SMILES
1,173,CCN(CC)CC1CCN(c2ccc(NC(=O)CCN(C)S(=O)(=O)c3c(C)cc(OC)cc3C)nn2)CC1 [Example 87]

# Biological target: T1, hBK1 receptor (Homo sapiens, UniProt P46663)
# T1 construct: expressed in transfected cells; host or cells: CHO cells
# T1 sequence (P46663 1-353): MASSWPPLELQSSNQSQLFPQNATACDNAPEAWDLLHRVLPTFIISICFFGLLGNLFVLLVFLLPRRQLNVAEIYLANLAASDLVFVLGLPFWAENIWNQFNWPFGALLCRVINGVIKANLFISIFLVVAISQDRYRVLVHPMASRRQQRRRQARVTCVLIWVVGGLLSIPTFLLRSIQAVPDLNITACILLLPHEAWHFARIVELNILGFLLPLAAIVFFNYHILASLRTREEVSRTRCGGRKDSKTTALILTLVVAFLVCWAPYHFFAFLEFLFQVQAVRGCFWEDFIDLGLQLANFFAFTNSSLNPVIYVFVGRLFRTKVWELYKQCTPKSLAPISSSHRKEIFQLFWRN
# Assay: hBK1 receptor binding (displacement of [3H]-kallidin (DesArg10, Leu9) from membranes of CHO cells expressing the hBK1 receptor)
# Conditions: CHO cell membranes expressing hBK1 receptor; 0.5 to 1.0 nM [3H]-kallidin (DesArg10, Leu9); 60 minutes at room temperature
# Protocol: Description of the Method of hBK1 Receptor Binding
# CHO cells expressing the hBK1 receptor are cultivated in Dulbecco's modified medium. The medium from confluent cultures is removed and the cells are washed with PBS buffer, scraped off and isolated by centrifugation. The cells are then homogenized in suspension and the homogenate is centrifuged and resuspended. The protein content is determined and the membrane preparation obtained in this manner is then frozen at −80° C.
# After thawing, 200 μl of the homogenate (50 to 100 μg of proteins/assay) are incubated at room temperature with 0.5 to 1.0 nM of kallidin (DesArg10, Leu9), [3,4-prolyl-3,43H(N)] and increasing concentrations of the test substance in a total volume of 250 μl for 60 minutes. The incubation is terminated by rapid filtration through GF/B glass fibre filters which had been pretreated with polyethyleneimine (0.3%). The protein-bound radioactivity is measured in a TopCount NXT. Non-specific binding is defined as radioactivity bound in the presence of 1.0 μM of kallidin (DesArg10, Leu9), [3,4-prolyl-3,43H(N)]. The concentration/binding curve is analysed using a computer-assisted nonlinear curve fitting. The Ki which corresponds to the test substance is determined using the data obtained in this manner. […]
row,Ki [nM],SMILES
1,1.8,COc1cc(C)c(S(=O)(=O)N(C)CCOCC(=O)N(C)[C@H]2CC[C@@H](CN3CCC[C@H](N(C)C)C3)CC2)c(C)c1 [(473)]
2,8.1,COc1cc(C)c(S(=O)(=O)N(C)CCOCC(=O)N(C)Cc2ccc(N3CCCC(N(C)C)C3)cc2C)c(C)c1 (stereo not drawn) [(381)]
3,2.39,COc1cc(C)c(S(=O)(=O)N(C)CCOCC(=O)N(C)CC2CCC(NCCN(C)C)CC2)c(C)c1 (stereo not drawn) [(372)]
4,3.4,COc1cc(C)c(S(=O)(=O)N(C)CCC(=O)Nc2cc(C)c(N3CCC(N(C)C)CC3)cc2Cl)c(C)c1 [(186)]
5,5.1,COc1cc(C)c(S(=O)(=O)N(C)CCOCC(=O)N(C)[C@H]2CC[C@@H](N3CCN(C)CC3)CC2)c(C)c1 [(589)]
6,4.4,COc1cc(C)c(S(=O)(=O)N(C)CCOCC(=O)N(C)CC2CCN(c3cc[n+](C)cc3)CC2)c(C)c1 [(114)]
7,8,COc1cc(Cl)cc(Cl)c1S(=O)(=O)N(C)CCOCC(=O)N(C)[C@@H]1CCN(C2CCN(C)CC2)C1 [(469)]
8,0.65,COc1cc(C)c(S(=O)(=O)N(C)CCOCC(=O)N(C)C2CCC(N3CCC(CN4CCCC4)CC3)CC2)c(C)c1 (stereo not drawn) [(419)]
9,6.6,COc1cc(C)c(S(=O)(=O)N(C)CCC(=O)Nc2cc(F)c(N3CCC(N(C)C)CC3)cc2C)c(C)c1 [(183)]
10,9.5,COc1cc(C)c(S(=O)(=O)N(C)CCOCC(=O)N(C)CC2CCC(N3CCCC(N(C)C)C3)CC2)c(C)c1 (stereo not drawn) [(587)]
11,1.2,COc1cc(C)c(S(=O)(=O)N(C)CCOCC(=O)N(C)[C@H]2CC[C@@H](CCN3CCOCC3)CC2)c(C)c1 [(619)]
12,0.4,COc1cc(C)c(S(=O)(=O)N(C)CCOCC(=O)N(C)Cc2ccc(-c3cn(C)c(C)n3)cc2)c(C)c1 [(67)]
13,4.4,COc1cc(C)c(S(=O)(=O)N(C)CCOCC(=O)N(C)Cc2ccc3nc(N)ccc3c2)c(C)c1 [(360)]
14,2.7,CNc1ccc2cc(CN(C)C(=O)COCCN(C)S(=O)(=O)c3c(C)cc(OC)cc3C)ccc2n1 [(367)]
15,4.6,COc1cc(C)c(S(=O)(=O)N(C)CCOCC(=O)N(C)[C@H]2CC[C@@H](CN3CC[C@@H](N(C)C)C3)CC2)c(C)c1 [(441)]
16,1.4,COc1cc(C)c(S(=O)(=O)N(C)CCOCC(=O)N(C)C2CCc3cc(CN4CCCC4)ccc32)c(C)c1 (stereo not drawn) [(424)]
17,1.5,COc1cc(C)c(S(=O)(=O)N(C)CCOCC(=O)N(C)[C@H]2CC[C@@H](CCN3CCN(C)CC3)CC2)c(C)c1 [(464)]
18,7.5,COc1cc(C)c(S(=O)(=O)N(C)CCOCC(=O)N(C)C2CCN(C3CCN(C)CC3)CC2)c(C)c1 [(397)]
19,5.7,COc1cc(C)c(S(=O)(=O)N(C)CCCCC(=O)N(C)CC2CCN(c3ccncc3)CC2)c(C)c1 [(130)]
20,3.7,COc1cc(C)c(S(=O)(=O)N(C)CCOCC(=O)N(C)Cc2ccc(N(C)CCN(C)C)cc2C)c(C)c1 [(389)]
21,0.7,COc1cc(C)c(S(=O)(=O)N(C)CCOCC(=O)N(C)Cc2ccc(-c3cn4c(n3)CCCC4)cc2)c(C)c1 [(55)]
22,7,COc1cc(C)c(S(=O)(=O)N(C)CCC(=O)Nc2ccc(N3CCN(c4ccncc4)CC3)nc2)c(C)c1 [(22)]
23,0.79,CCN1CCC(N2CC[C@@H](N(C)C(=O)COCCN(C)S(=O)(=O)c3c(C)cc(OC)cc3C)C2)CC1 [(400)]
24,5.6,COc1cc(C)c(S(=O)(=O)N(C)CCOCC(=O)N(C)Cc2ccc(N3CCC(N4CCCC4)C3)cc2Cl)c(C)c1 (stereo not drawn) [(445)]
25,0.68,COc1cc(C)c(S(=O)(=O)N(C)CCOCC(=O)N(C)[C@H]2CC[C@@H](CN3CC[C@@H](N4CCCC4)C3)CC2)c(C)c1 [(472)]

row,Ki [nM],SMILES
1,5.5,COc1cc(C)c(S(=O)(=O)N(C)CCOCC(=O)N(C)C2CCN(C(=O)CCN3CCCC3)CC2)c(C)c1 [(630)]
2,6.4,COc1cc(C)c(S(=O)(=O)N(C)CCOCC(=O)N(C)Cc2ccc(N3CC[C@@H](N(C)C)C3)cc2)c(C)c1 [(385)]
3,5.8,COc1cc(C)c(S(=O)(=O)N(C)CCOCC(=O)N(C)Cc2ccc(CNC(C)(C)C)cc2)c(C)c1 [(78)]
4,2.8,COc1cc(C)c(S(=O)(=O)N(C)CCOCC(=O)N(C)Cc2ccc3[nH]c(CN(C)C)nc3c2)c(C)c1 [(404)]
5,1.3,COc1cc(C)c(S(=O)(=O)N(C)CCC(=O)Nc2cc(Br)c(N3CCC(N(C)C)CC3)cc2C)c(C)c1 [(184)]
6,2.8,COc1cc(C)c(S(=O)(=O)N(C)CCOCC(=O)N(C)Cc2ccc(CNC3CCCC3)cc2)c(C)c1 [(72)]
7,2.8,COc1cc(C)c(S(=O)(=O)N(C)CCOCC(=O)N(C)Cc2ccc(N(C)CCN(C)C)cc2)c(C)c1 [(323)]
8,2.4,COc1cc(C)c(S(=O)(=O)N(C)CCOCC(=O)N(C)Cc2ccc3nc(N(C)C)ccc3c2)c(C)c1 [(365)]
9,6.1,COc1cc(C)c(S(=O)(=O)N(C)CCOCC(=O)N(C)Cc2ccc(N3CCC(N4CCCC4)C3)cc2)c(C)c1 (stereo not drawn) [(353)]
10,9.1,COc1cc(C)c(S(=O)(=O)N(C)CCOCC(=O)N(C)CC2CCC(N3CCN(C)CC3)CC2)c(C)c1 (stereo not drawn) [(420)]
11,6.32,COc1cc(C)c(S(=O)(=O)N(C)CCC(=O)N[C@H]2CC[C@H](N3CCC(CCN4CCCC4)CC3)CC2)c(C)c1 [(303)]
12,5.8,COc1cc(C)c(S(=O)(=O)N(C)CCOCC(=O)N(C)C2CCC(C3CCN(C)CC3)CC2)c(C)c1 (stereo not drawn) [(477)]
13,7.4,COc1cc(C)c(S(=O)(=O)N(C)CCOCC(=O)N(C)Cc2ccc3[nH]c(N)nc3c2)c(C)c1 [(361)]
14,9.7,COc1cc(C)c(S(=O)(=O)N(C)CCOCC(=O)N(C)[C@H]2CC[C@@H](OCCN(C)C)CC2)c(C)c1 [(613)]
15,8.7,CCC(CC)NCc1ccc(CN(C)C(=O)COCCN(C)S(=O)(=O)c2c(C)cc(OC)cc2C)cc1 [(77)]
16,9,COc1cc(C)c(S(=O)(=O)N(C)CCOCC(=O)N(C)C2CCCN(C3CCN(C)CC3)CC2)c(C)c1 (stereo not drawn) [(451)]
17,0.99,COc1cc(C)c(S(=O)(=O)N(C)CCOCC(=O)N(C)Cc2ccc(-c3c[nH]c(C)n3)cc2)c(C)c1 [(117)]
18,4.6,COc1cc(C)c(S(=O)(=O)N(C)CCOCC(=O)N(C)Cc2ccc(-c3cn(C)cn3)cc2)c(C)c1 [(66)]
19,1,COc1cc(C)c(S(=O)(=O)N(C)CCOCC(=O)N(C)[C@@H]2CCN(C3CCN(C4CCCC4)CC3)C2)c(C)c1 [(478)]
20,5.9,COc1cc(C)c(S(=O)(=O)N(C)CCOCC(=O)N(C)[C@H]2CC[C@@H](CCN(C)C)CC2)c(C)c1 [(620)]
21,8.8,COc1cc(C)c(S(=O)(=O)N(C)CCOCC(=O)N(C)Cc2ccc(N3CCC(N(C)C)C3)cc2Cl)c(C)c1 (stereo not drawn) [(356)]
22,9.2,COc1cc(C)c(S(=O)(=O)N(C)CCOCC(=O)N(C)Cc2ccc(OCCN(C)C)c(Cl)c2)c(C)c1 [(352)]
23,6.2,COc1cc(C)c(S(=O)(=O)N(C)CCOCC(=O)N(C)C[C@H]2CC[C@@H](NCCN(C)C)CC2)c(C)c1 [(383)]
24,2.4,COc1cc(C)c(S(=O)(=O)N(C)CCOCC(=O)N(C)CC2CCN(c3ccnc(C)c3)CC2)c(C)c1 [(53)]

row,SMILES,Ki [nM]
1,COc1cc(C)c(S(=O)(=O)N(C)CCC(=O)Nc2ccc(N3CCN(c4cc[n+](C)cc4)CC3)cc2)c(C)c1 [(227)],4.8

# Reference: patent publication US7858618B2, “Compounds” (Boehringer Ingelheim International GmbH, priority 2006, dated 2010)
